Here are results for 10 molecules from PubChem BioAssay (NCI).

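Briefly, cells in 96-well plates were exposed to five compound concentrations for 48 h, and endpoints were estimated by linear interpolation. Definition used: TGI = concentration required for complete inhibition of growth.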

Common to all, as to experiment: NCI-60 cell line screen, 48 h
Assay [1] concerns CAKI-1 renal.
Assay [2] has as its system K-562 leukemia.
For assay [3], the system named is LOX IMVI melanoma.
Assay [4] has as its system NCI-H226 lung.
The test system of assay [5] is NCI-H23 lung.
Assay [6] relates to NCI-H522 lung.
In assay [7] the test system is OVCAR-3 ovarian.
Assay [8] concerns RXF 393 renal.
Assay [9] has as its system SK-MEL-28 melanoma.
Assay [10] relates to SN12C renal.
Assay [11] deals with TK-10 renal.
Assay [12] has as its system UACC-257 melanoma.
Assay [13] concerns UO-31 renal.

Consider `O=[S@]1c2ccc3ccccc3c2N[C@@H]2[C@H]1[C@H]1C=C[C@@H]2C1`, for which the TGI in [1] was > 100 µM; in assay [2] it was > 100 µM; in assay [3] it was > 100 µM; in assay [4] it was > 100 µM; in assay [5], > 100 µM; in assay [6] it was 55.4 µM. The TGI in [7] was 37.6 µM; in [8], 95.1 µM; in assay [9] it was > 100 µM; in assay [10] it was > 100 µM; in [11], > 100 µM; in assay [12] it was > 100 µM. In addition, the TGI in assay [13] was > 100 µM.

For `COc1ccc2c(c1)CCCN1CCc3ccccc3C21` (stereo not drawn), the TGI was > 100 µM in assay [1]; > 100 µM in assay [2]; > 100 µM in [3]; 80 µM in assay [4]; > 100 µM in assay [5]; > 100 µM in [6]. Also, the TGI in assay [7] is > 100 µM; in assay [8], 73 µM; in assay [9], > 100 µM; in assay [10], 77.7 µM; in assay [11], > 100 µM; in assay [12], > 100 µM.

Consider `CCCc1cc(COC)c(C#N)c(=O)[nH]1`, for which the TGI in assay [1], in assay [2], in assay [3], in [4], in assay [5] and in [6] was > 100 µM throughout. Besides, the TGI in assay [7], in assay [8], in assay [9], in assay [10], in [11] and in assay [12] was > 100 µM throughout. Further, in assay [13], the TGI is > 100 µM.

In the case of `O=C(/C=C/c1ccccc1)Nc1ccccc1SCCCCl`, the TGI was > 100 µM in assay [1]; > 100 µM in assay [2]; > 68.2 µM in assay [3]; > 100 µM in [4]; 40.7 µM in [5]; 24.3 µM in assay [6]. Also, the TGI was > 92.1 µM in assay [7]; 84.2 µM in assay [8]; > 100 µM in assay [9]; 98.5 µM in assay [10]; > 100 µM in [11]; > 100 µM in assay [12]. The TGI in assay [13] is 91.6 µM.

For `CCOC(=O)/C=C(/C(=O)OCC)n1ccc(=O)n(Cc2cnnn2COCCOC(C)=O)c1=O`, the TGI in assay [1] was 11.4 µM; in assay [2] it was > 100 µM; in assay [3], 37.3 µM; in [4], 57.3 µM; in assay [5], 33.3 µM; in [6] it was 4.65 µM. For the same molecule, the TGI in assay [7] is 31 µM; in [8] it was 39 µM; in assay [9] it was 32.2 µM; in assay [10] it was 47.9 µM; in assay [11], 22.2 µM; in assay [12], 31.3 µM. This molecule also showed a TGI in assay [13] of 29.6 µM.

Turning to `COc1ccc(N=NC(=O)NC(CC(C)C)C(=O)NCC(=O)O)cc1` (stereo not drawn), the TGI in [1] is > 100 µM; in assay [2], > 29.1 µM; in assay [3], > 100 µM; in assay [4], 99 µM; in assay [5], > 100 µM; in assay [6] it was > 100 µM. Also, the TGI in [7], in assay [8], in assay [9], in assay [10], in [11] and in [12] was > 100 µM in each case. Further, the TGI in assay [13] stood at 10.7 µM.

With `CC(C)CC(N)C(=O)Nc1ccc2ccccc2c1` (stereo not drawn), the TGI in assay [1], in assay [2], in assay [3], in assay [4], in [5] and in assay [6] was > 100 µM each time. Also, the TGI in assay [7], in [8], in assay [9], in assay [10], in [11] and in assay [12] was > 100 µM in each case. Also, in assay [13], the TGI is > 100 µM.

As to `O=C1CC(CC(=O)c2ccc(Br)cc2)C(=O)/C1=C(/O)c1ccc(Br)cc1` (stereo not drawn), the TGI in [1], in assay [2], in assay [3], in assay [4], in assay [5] and in assay [6] was > 100 µM throughout. The TGI in assay [7], in assay [8], in assay [9], in [10], in assay [11] and in assay [12] was > 100 µM each time. Also, in assay [13], the TGI was > 100 µM.

For `CC(C)(Cl)C(Br)CCC(Br)(CCl)C(Cl)CBr` (stereo not drawn), the TGI in assay [1], in assay [2], in assay [3], in [4], in [5] and in assay [6] was > 10 µM in each case. For the same molecule, the TGI in [7], in assay [8], in assay [9], in assay [10], in [11] and in assay [12] was > 10 µM each time. Besides, the TGI in assay [13] is > 10 µM.

On to `Cc1cc2nc3ccccc3n2c2nc(N)ccc12`, for which the TGI was > 100 µM in assay [1]; > 100 µM in assay [2]; > 100 µM in assay [3]; 84.9 µM in assay [4]; > 100 µM in assay [5]; > 100 µM in assay [6]. Also, the TGI in [7], in assay [8], in assay [10], in assay [11], in [12] and in assay [13] was > 100 µM each time.
